Read-outs that look alike come from different tables or passages of the source.
What was measured:
CDK1/Cyclin B = target: T1, CDK1/Cyclin B (Homo sapiens, UniProt P06493); experiment: Enzymatic assay for CDK1 (FRET based LANCE Ultra kinase assay); assay type: biochemical; settings: read-out: CDK1 enzymatic activity (IC50 range)
T1 construct: purchased Invitrogen PR4768C
In short: (§1)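 LANCE Ultra TR-FRET: ULight-MBP peptide (68 nM) with ATP at Km, […], 60 min at 23° C. EDTA plus Eu-anti-phospho-MBP added, another 60 min, then 665/615 nm emission read. Compounds tested as 8-dose 4-fold DMSO dilutions.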

CDK2/Cyclin A = target: T2, CDK2/Cyclin A (Homo sapiens, UniProt P24941); experiment: Enzymatic assay for CDK2 (FRET based LANCE Ultra kinase assay); assay type: biochemical; settings: read-out: CDK2 enzymatic activity (IC50 range)
T2 construct: purchased Invitrogen PV6290
In short: as §1

CDK5/p25 = target: T3, CDK5/p25 (Homo sapiens, UniProt Q00535); experiment: Enzymatic assay for CDK5 (FRET based LANCE Ultra kinase assay); assay type: biochemical; settings: read-out: CDK5 enzymatic activity (IC50 range)
T3 construct: purchased Invitrogen PR8543B
T3 sequence (Q00535 whole entry): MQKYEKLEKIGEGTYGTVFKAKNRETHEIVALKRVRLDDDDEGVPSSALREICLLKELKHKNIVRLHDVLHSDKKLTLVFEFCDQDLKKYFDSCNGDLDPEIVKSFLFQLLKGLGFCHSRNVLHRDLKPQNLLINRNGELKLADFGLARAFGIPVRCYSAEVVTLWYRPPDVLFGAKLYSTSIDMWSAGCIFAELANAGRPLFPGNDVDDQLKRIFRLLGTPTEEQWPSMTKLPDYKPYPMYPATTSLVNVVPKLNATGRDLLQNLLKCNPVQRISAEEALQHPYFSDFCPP
T3 sequence (Q15078 99-307 partner limits assumed): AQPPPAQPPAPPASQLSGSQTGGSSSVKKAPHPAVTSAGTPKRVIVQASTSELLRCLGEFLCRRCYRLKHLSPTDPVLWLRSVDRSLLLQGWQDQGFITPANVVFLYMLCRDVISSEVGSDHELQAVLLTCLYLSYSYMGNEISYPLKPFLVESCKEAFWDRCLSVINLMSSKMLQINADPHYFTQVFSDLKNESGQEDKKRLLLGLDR
In short: as §1

CDK7/Cyclin H/MNAT1 = target: T4, CDK7/Cyclin H/MNAT1 (Homo sapiens, UniProt P50613); experiment: Enzymatic assay for CDK7 (FRET based LANCE Ultra kinase assay); assay type: biochemical
T4 construct: purchased Invitrogen PR6749B
T4 sequence (P50613 whole entry): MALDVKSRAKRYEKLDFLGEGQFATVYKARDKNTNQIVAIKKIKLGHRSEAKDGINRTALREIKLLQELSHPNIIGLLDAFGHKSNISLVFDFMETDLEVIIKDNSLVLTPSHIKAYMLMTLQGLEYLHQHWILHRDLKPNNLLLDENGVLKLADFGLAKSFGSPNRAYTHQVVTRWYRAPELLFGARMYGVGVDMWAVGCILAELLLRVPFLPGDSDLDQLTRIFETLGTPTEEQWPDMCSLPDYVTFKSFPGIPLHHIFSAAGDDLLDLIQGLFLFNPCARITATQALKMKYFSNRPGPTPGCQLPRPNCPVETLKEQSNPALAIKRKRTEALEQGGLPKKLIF
T4 sequence (P51946 whole entry partner): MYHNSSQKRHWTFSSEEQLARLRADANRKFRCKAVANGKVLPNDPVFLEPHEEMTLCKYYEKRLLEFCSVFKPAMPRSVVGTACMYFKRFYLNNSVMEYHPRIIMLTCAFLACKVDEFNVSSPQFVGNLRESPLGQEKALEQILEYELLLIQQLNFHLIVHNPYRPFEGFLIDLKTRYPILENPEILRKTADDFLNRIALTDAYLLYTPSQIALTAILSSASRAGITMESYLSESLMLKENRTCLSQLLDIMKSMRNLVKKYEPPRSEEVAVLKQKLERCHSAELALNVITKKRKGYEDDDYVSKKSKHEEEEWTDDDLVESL
T4 sequence (P51948 whole entry partner): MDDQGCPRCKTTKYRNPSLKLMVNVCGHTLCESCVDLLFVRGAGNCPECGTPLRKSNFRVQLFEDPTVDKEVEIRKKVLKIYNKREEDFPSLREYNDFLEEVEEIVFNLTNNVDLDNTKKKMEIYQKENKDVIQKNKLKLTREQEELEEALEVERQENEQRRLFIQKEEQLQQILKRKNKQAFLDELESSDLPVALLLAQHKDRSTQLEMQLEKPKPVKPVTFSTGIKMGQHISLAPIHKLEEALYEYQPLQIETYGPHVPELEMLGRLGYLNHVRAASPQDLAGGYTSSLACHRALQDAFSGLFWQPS
In short: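 Inhibition was measured at Km ATP by time-resolved FRET between a Eu anti-phospho antibody and a phosphorylated ULight peptide. The enzyme was the purified CDK7/cyclin complex, and data were curve-fitted.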

HCT116 = experiment: Cellular HCT116 viability assay (CellTiter-Glo, 72 hours); assay type: cell-based; settings: Homo sapiens, HCT-116
In short: (§2)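 Mycoplasma-tested cells, seeded at densities chosen for each line, received compound or DMSO vehicle (under 0.1% final) for 72 hours. Duplicate cultures were then read for viability by CellTiter-Glo luminescence.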

H460 = experiment: Cellular H460 viability assay (CellTiter-Glo, 72 hours); assay type: cell-based; settings: Homo sapiens, NCI-H460
In short: as §2

MV4-11 = experiment: Cellular MV4-11 viability assay (CellTiter-Glo, 72 hours); assay type: cell-based; settings: Homo sapiens
In short: as §2

MOLT-4 = experiment: Cellular MOLT-4 viability assay (CellTiter-Glo, 72 hours); assay type: cell-based; settings: Homo sapiens, MOLT4 viability assay
In short: as §2

RPMI-8226 = experiment: Cellular RPMI-8226 viability assay (CellTiter-Glo, 72 hours); assay type: cell-based; settings: Homo sapiens
In short: as §2

[1] = read-out: CDK7 enzymatic activity (IC50 range)

T1 sequence (P06493 whole entry): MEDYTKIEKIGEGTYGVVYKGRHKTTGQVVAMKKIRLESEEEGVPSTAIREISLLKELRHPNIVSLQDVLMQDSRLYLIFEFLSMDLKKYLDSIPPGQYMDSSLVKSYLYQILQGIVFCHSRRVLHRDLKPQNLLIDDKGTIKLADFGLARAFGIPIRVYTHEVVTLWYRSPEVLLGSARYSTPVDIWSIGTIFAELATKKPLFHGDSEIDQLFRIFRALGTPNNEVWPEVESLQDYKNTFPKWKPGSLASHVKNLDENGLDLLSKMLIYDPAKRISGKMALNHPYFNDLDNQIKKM
T1 sequence (P14635 whole entry partner): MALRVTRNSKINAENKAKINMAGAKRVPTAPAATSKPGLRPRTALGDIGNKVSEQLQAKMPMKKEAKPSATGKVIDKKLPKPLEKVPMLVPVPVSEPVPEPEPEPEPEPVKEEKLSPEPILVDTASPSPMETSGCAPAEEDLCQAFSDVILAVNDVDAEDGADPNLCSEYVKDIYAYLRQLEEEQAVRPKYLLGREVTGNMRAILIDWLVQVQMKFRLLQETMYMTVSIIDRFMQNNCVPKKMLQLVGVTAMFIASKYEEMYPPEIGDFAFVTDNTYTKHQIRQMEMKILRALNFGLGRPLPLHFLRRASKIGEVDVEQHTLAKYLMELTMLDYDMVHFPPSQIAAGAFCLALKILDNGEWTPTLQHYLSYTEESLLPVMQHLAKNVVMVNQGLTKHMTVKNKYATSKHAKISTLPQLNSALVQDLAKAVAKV

Structure (SMILES)	IC50 (CDK1/Cyclin B) [nM]	IC50 (CDK2/Cyclin A) [nM]	IC50 (CDK5/p25) [nM]	CDK1/CDK7: Selectivity of CDK7 inhibition over CDK1 inhibition (CDK7/Cyclin H/MNAT1)	CDK2/CDK7: Selectivity of CDK7 inhibition over CDK2 inhibition (CDK7/Cyclin H/MNAT1)	CDK5/CDK7: Selectivity of CDK7 inhibition over CDK5 inhibition (CDK7/Cyclin H/MNAT1)	IC50 (CDK7/Cyclin H/MNAT1; [1]) [nM]	IC50 (HCT116) [nM]	IC50 (H460) [nM]	IC50 (MV4-11) [nM]	IC50 (MOLT-4) [nM]	IC50 (RPMI-8226) [nM]	IC50 (CDK7/Cyclin H/MNAT1) [nM]
NC1CCN(c2nc(NCc3ccccc3-n3cccn3)n3ncc(Br)c3n2)CC1 [Compound 18]	100 to 1000	100 to 1000	< 100	B (B=less than 200 fold, but greater than 20 fold)	B (B=less than 200 fold, but greater than 20 fold)	C (C=less than 20 fold)	< 100	< 1000	< 1000	< 1000	1000 to 10000	< 1000	–
CC(C)c1cnn2c(NCc3ccccc3-n3cccn3)nc(N3CCC(C)(N)CC3)nc12 [Compound 27]	100 to 1000	100 to 1000	< 100	A (A=greater than 200 fold)	B (B=less than 200 fold, but greater than 20 fold)	B (B=less than 200 fold, but greater than 20 fold)	< 100	< 1000	< 1000	< 1000	1000 to 10000	< 1000	–
CC(C)c1cnn2c(NCc3ccccc3-c3cnc4ccccc4n3)nc(N3CCC(N)CC3)nc12 [Compound 80]	100 to 1000	100 to 1000	< 100	A (A=greater than 200 fold)	B (B=less than 200 fold, but greater than 20 fold)	B (B=less than 200 fold, but greater than 20 fold)	< 100	< 1000	< 1000	< 1000	1000 to 10000	< 1000	–
CC(C)c1cnn2c(NCc3ccccc3-c3nc4ccccc4o3)nc(N3CCC(N)CC3)nc12 [Compound 97]	100 to 1000	100 to 1000	100 to 1000	B (B=less than 200 fold, but greater than 20 fold)	B (B=less than 200 fold, but greater than 20 fold)	B (B=less than 200 fold, but greater than 20 fold)	< 100	< 1000	< 1000	< 1000	1000 to 10000	< 1000	–
CC(C)c1cnn2c(NCc3ccccc3-c3nc4ccccc4[nH]3)nc(N3CCC(N)CC3)nc12 [Compound 98]	100 to 1000	100 to 1000	< 100	A (A=greater than 200 fold)	B (B=less than 200 fold, but greater than 20 fold)	B (B=less than 200 fold, but greater than 20 fold)	< 100	< 1000	< 1000	< 1000	< 1000	< 1000	–
CC(C)c1cnn2c(NCc3ccccc3-n3ccc(-c4ccccc4)n3)nc(N3CCC(N)CC3)nc12 [Compound 99]	> 1000	> 1000	100 to 1000	A (A=greater than 200 fold)	A (A=greater than 200 fold)	B (B=less than 200 fold, but greater than 20 fold)	–	< 1000	< 1000	< 1000	1000 to 10000	1000 to 10000	< 100

— patent publication US11945822B2, “Pyrazolo-triazine and/or pyrazolo-pxrimidine derivatives as selective inhibitor of cyclin dependent kinase” (QURIENT CO., LTD., priority 2018, dated 2024)
